Ends that are not written are not given here.
Experiments:
CD95/PLCγ1 = target: T1, CD95/PLCγ1 (Homo sapiens, UniProt P19174); assay: PLCγ1 recruitment to CD95 (immunoprecipitation and immunoblotting); type: cell-based; settings: HEK cells co-transfected with PLCγ1 and construct
T1 construct: endogenous in cells; host or cells: CEM (human leukemic T-cell line)
T1 sequence (P19174 2-1290 limits assumed): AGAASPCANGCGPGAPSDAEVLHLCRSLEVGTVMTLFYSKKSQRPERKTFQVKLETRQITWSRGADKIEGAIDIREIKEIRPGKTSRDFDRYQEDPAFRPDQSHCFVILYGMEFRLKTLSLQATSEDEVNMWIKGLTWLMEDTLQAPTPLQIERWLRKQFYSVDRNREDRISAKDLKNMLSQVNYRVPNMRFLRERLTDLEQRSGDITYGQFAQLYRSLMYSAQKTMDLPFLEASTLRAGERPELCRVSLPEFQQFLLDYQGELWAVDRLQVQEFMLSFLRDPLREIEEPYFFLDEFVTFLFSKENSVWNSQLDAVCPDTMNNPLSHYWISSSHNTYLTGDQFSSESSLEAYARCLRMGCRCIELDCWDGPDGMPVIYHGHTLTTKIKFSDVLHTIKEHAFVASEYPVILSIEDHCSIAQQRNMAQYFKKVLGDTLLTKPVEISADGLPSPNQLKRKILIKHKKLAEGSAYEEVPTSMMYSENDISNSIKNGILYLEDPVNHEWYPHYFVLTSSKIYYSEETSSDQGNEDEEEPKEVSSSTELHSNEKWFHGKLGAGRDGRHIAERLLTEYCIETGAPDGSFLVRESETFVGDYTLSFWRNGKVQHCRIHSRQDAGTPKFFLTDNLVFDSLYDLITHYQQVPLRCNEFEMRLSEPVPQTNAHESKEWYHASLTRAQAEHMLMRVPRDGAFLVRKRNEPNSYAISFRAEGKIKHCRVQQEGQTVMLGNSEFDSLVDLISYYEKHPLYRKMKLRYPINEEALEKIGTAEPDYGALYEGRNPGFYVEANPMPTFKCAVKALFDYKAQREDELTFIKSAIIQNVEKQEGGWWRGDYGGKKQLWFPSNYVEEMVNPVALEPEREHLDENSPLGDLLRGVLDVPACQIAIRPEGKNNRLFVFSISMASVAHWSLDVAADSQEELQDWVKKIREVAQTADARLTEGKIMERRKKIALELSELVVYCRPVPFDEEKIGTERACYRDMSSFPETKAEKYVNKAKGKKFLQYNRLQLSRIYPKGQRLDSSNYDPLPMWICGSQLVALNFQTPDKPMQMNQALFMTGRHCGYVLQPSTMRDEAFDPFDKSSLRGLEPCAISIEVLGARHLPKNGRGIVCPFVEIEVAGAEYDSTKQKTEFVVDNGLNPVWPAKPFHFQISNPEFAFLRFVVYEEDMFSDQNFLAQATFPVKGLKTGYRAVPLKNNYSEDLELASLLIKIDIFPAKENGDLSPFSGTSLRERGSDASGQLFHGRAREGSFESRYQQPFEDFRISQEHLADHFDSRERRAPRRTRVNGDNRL
Protocol: T-cells (5×10^7 cells per condition) were stimulated with Ig-CD95L or cl-CD95L (100 ng/mL) for indicated times at 37° C. Cells were lysed, incubated with APO1.3 (1 ug/mL) for 15 min at 4° C. and CD95 was immunoprecipitated using A/G protein-coupled magnetic beads (Ademtech, Pessac, France) for 1 h. After extensive washing, the immune complex was resolved by SDS-PAGE and immunoblotting was performed with indicated antibodies.
Cells were lyzed for 30 minutes at 4° C. in lysis buffer (25 mM HEPES pH 7.4, 1% v/v Triton X-100, 150 mM NaCl, 2 mM EGTA supplemented with a mix of protease inhibitors (Sigma-Aldrich)). Protein concentration was determined by the bicinchoninic acid method (PIERCE, Rockford, Ill., USA) according to the manufacturer's protocol. Proteins were separated on a 12% SDS-PAGE and transferred to a nitrocellulose membrane (GE Healthcare, Buckinghamshire, England). The membrane was blocked 15 minutes with TBST (50 mM Tris, 160 mM NaCl, 0.05% v/v Tween 20, pH 7.8) containing 5% w/v dried skimmed milk (TBSTM). Primary antibody was incubated overnight at 4° C. in TBSTM. The membrane was intensively washed (TBST) and then the peroxydase-labeled anti-rabbit or anti-mouse (SouthernBiotech, Birmingham, Ala., US) was added for 45 minutes. The proteins were visualized with the enhanced chemiluminescence substrate kit (ECL, GE Healthcare).

[1] = test system: CD95-mediated Ca^2+ response; assay: Calcium response to cl-CD95L in Jurkat cells (Fura2/FuraPE3 video imaging); type: cell-based; settings: Jurkat pre-incubated 1 hr, 10 μM peptide; 100 ng/ml cl-CD95L
Protocol: (§1) Cells were loaded with Fura2-AM (1 μM) at resting temperature for 30 min in Hank's Balanced Salt Solution (HBSS). After washing with HBSS, the cells were incubated for 15 min in the absence of Fura2-AM to complete de-esterification of the dye. Cells were placed in a thermostated chamber (37° C.) of an inverted epifluorescence microscope (Olympus IX70) equipped with a ×40, UApo/340-1.15 W water-immersion objective (Olympus), and fluorescence micrograph images were captured at 510 nm and at 12-bit resolution by a fast-scan camera (CoolSNAP fx Monochrome, Photometrics). To minimize UV light exposure, 4×4 binning function was used. Fura2-AM was alternately excited at 340 and 380 nm, and ratios of the resulting images (excitations at 340 and 380 nm and emission filter at 520 nm) were produced at constant intervals (5 s or 10 s according to the stimulus). […] Fluorescent images were pseudocolored using the IMD display mode in MetaFluor and assembled without further manipulation in Photoshop (Adobe). Raw data were acquired with MetaFluor and graphed in Origin (OriginLab). [Ca^2+]i was calculated using the following equation: [Ca^2+]i=Kd(R−Rmin)/(R−Rmax)×Sf2/Sf1, where Kd is the Fura2-AM dissociation constant at the two excitation wavelengths (F340/F380); Rmin is the fluorescence ratio in the presence of minimal calcium, obtained by chelating Ca^2+ with 10 mM EGTA; Rmax is the fluorescence ratio in the presence of excess calcium, obtained by treating cells with 1 μM ionomycin; Sf2 is the fluorescence of the Ca^2+-free form; and Sf1 is the fluorescence of the Ca^2+-bound form of Fura2-AM at excitation wavelengths of 380 and 340 nm, respectively. In some experiments cells were placed in a Ca^2+-free medium consisting of the HBSS described above in which CaCl2 was omitted and 100 μM EGTA was added in order to chelate residual Ca^2+ ions. This medium was added to the cells just before recording to avoid leak of the intracellular calcium stores.
T cells were loaded with Fura-PE3-AM (1 μM) at room temperature for 30 min in Hank's Balanced Salt Solution (HBSS). After washing, the cells were incubated for 15 min in the absence of Fura-PE3-AM to complete de-esterification of the dye. Cells were placed in the temperature controlled chamber (37° C.) of an inverted epifluorescence microscope (Olympus IX70) equipped with an ×40 UApo/340-1.15 W water-immersion objective (Olympus), and fluorescence micrograph images were captured at 510 nm and 12-bit resolution by a fast-scan camera (CoolSNAP fx Monochrome, Photometrics). To minimize UV light exposure, a 4×4 binning function was used. Fura-PE3 was alternately excited at 340 and 380 nm, and the ratios of the resulting images (emission filter at 520 nm) were produced at constant intervals (10 seconds). The Fura-PE3 ratio (Fratio 340/380) images were analyzed offline with Universal Imaging software, including Metafluor and Metamorph. Fratio reflects the intracellular Ca^2+ concentration changes. Each experiment was repeated 3 times, and the average of more than 20 single-cell traces was analyzed.

[2] = test system: CD95-mediated Ca^2+ response; assay: Calcium response to cl-CD95L in activated PBL; type: cell-based, human; settings: activated PBL pre-incubated 1 hr, 10 μM peptide; 100 ng/ml cl-CD95L
Protocol: as §1
All cells were purchased from ATCC (Molsheim Cedex, France). T leukemic cell lines CEM, H9 and Jurkat were cultured in RPMI supplemented with 8% heat-inactivated FCS (v/v) and 2 mM L-glutamine at 37° C. in a 5% CO2 incubator. CEM-IRC cell expressing a low amount of plasma membrane CD95 was described in (Beneteau et al., 2007; Beneteau et al., 2008). […]
T cells were loaded with Fura-PE3-AM (1 μM) at room temperature for 30 min in Hank's Balanced Salt Solution (HBSS). […] Cells were placed in the temperature controlled chamber (37° C.) of an inverted epifluorescence microscope (Olympus IX70) equipped with an ×40 UApo/340-1.15 W water-immersion objective (Olympus), and fluorescence micrograph images were captured at 510 nm and 12-bit resolution by a fast-scan camera (CoolSNAP fx Monochrome, Photometrics). […]

[3] = test system: CD95-mediated Ca^2+ response; assay: Calcium response to cl-CD95L in MEF; type: cell-based; settings: MEFs pre-incubated 1 hr, 10 μM peptide; 100 ng/ml cl-CD95L
Protocol: Cells were loaded with Fura2-AM (1 μM) at resting temperature for 30 min in Hank's Balanced Salt Solution (HBSS). After washing with HBSS, the cells were incubated for 15 min in the absence of Fura2-AM to complete de-esterification of the dye. Cells were placed in a thermostated chamber (37° C.) of an inverted epifluorescence microscope (Olympus IX70) equipped with a ×40, UApo/340-1.15 W water-immersion objective (Olympus), and fluorescence micrograph images were captured at 510 nm and at 12-bit resolution by a fast-scan camera (CoolSNAP fx Monochrome, Photometrics). To minimize UV light exposure, 4×4 binning function was used. Fura2-AM was alternately excited at 340 and 380 nm, and ratios of the resulting images (excitations at 340 and 380 nm and emission filter at 520 nm) were produced at constant intervals (5 s or 10 s according to the stimulus). […] Fluorescent images were pseudocolored using the IMD display mode in MetaFluor and assembled without further manipulation in Photoshop (Adobe). Raw data were acquired with MetaFluor and graphed in Origin (OriginLab). […]

Row | Substance | interaction with PLCγ1 (co-immunoprecipitation) (CD95/PLCγ1) | PLCγ1 recruitment to CD95 (CD95/PLCγ1; CD95L 100 ng/mL) | calcium response to cl-CD95L [1] | calcium response to cl-CD95L [2] | initial phase of the calcium response to cl-CD95L [3]
1 | CD95^(175-210)-mCherry: construct consisting of CD95 amino acids 175 to 210 (calcium-inducing domain) fused to mCherry, expressed in HEK cells (KRKEVQKTCRKHRKENQGSHESPTLNPETVAINLSD-mCherry) | interacted with PLCγ1 | inhibited its recruitment to CD95 | – | – | –
2 | TAT peptide control: TAT control peptide, SEQ ID NO: 5 (RKKRRQRRRGGSIELDDPRPR; TAT-CONTROL) [reference compound] | – | – | did not significantly modify the calcium response | did not significantly modify the calcium response | did not modify the initial phase

From patent US10189887B2, “Polypeptides and uses thereof for reducing CD95-mediated cell motility” (INSERM (INSTITUT NATIONAL DE LA SANTÉ ET DE LA RECHERCHE …, priority 2014, dated 2019)
